# From PubChem BioAssay AID1259411 (Chemical Carcinogenesis Research Information System (CCRIS), 2018)
# Active and inactive are the calls of the source. No rule for the calls is given here.
# System: rodent carcinogenicity bioassays, tumor incidence
# Assay: CCRIS carcinogenicity studies
# How it was run: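 Archive of carcinogenicity, mutagenicity, tumor promotion and tumor inhibition results drawn from journals, NCI reports and other sources, expert-reviewed; covers 1985-2011 and is no longer updated.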
structure (smiles),measurement,setting,value
O,carcinogen call,"Species: MOUSE, Strain/Sex: B6C3F1/FEMALE, Route: ORAL, Dose: 0, 0.5, 2% IN DIET FOR 96 WK FOLLOWED BY CONTROL DIET FOR 8 WK (STUDY DURATION: 104 WK), Dose: 0, 0.5, 2% IN DIET FOR 96 WK FOLLOWED BY CONTROL DIET FOR 8 WK (STUDY DURATION: 104 WK)",inactive; negative
same,carcinogen call,"Species: MOUSE, Strain/Sex: B6C3F1/FEMALE, Route: ORAL, Dose: 0, 500, 1250, 2500 PPM IN DRINKING WATER (APPROXIMATELY 0; 40; 90; 200 MG/KG BW) FOR 104 WK (STUDY DURATION: 105 WK), Dose: 0, 500, 1250, 2500 PPM IN DRINKING WATER (APPROXIMATELY 0; 40; 90; 200 MG/KG BW) FOR 104 WK (STUDY DURATION: 105 WK)",inactive; negative
same,carcinogen call,"Species: MOUSE, Strain/Sex: B6C3F1/MALE, Route: ORAL, Dose: 0, 0.5, 2% IN DIET FOR 96 WK FOLLOWED BY CONTROL DIET FOR 8 WK (STUDY DURATION: 104 WK), Dose: 0, 0.5, 2% IN DIET FOR 96 WK FOLLOWED BY CONTROL DIET FOR 8 WK (STUDY DURATION: 104 WK)",inactive; negative
same,carcinogen call,"Species: MOUSE, Strain/Sex: B6C3F1/MALE, Route: ORAL, Dose: 0, 500, 1250, 2500 PPM IN DRINKING WATER (APPROXIMATELY 0; 30; 75; 160 MG/KG BW) FOR 103 WK (STUDY DURATION: 103 WK), Dose: 0, 500, 1250, 2500 PPM IN DRINKING WATER (APPROXIMATELY 0; 30; 75; 160 MG/KG BW) FOR 103 WK (STUDY DURATION: 103 WK)",inactive; negative
same,carcinogen call,"Species: RAT, Strain/Sex: F344/FEMALE, Route: ORAL, Dose: 0, 500, 1250, 2500 PPM IN DRINKING WATER (APPROXIMATELY 0; 15; 45; 75 MG/KG BW) FOR 105 WK (STUDY DURATION: 106 WK), Dose: 0, 500, 1250, 2500 PPM IN DRINKING WATER (APPROXIMATELY 0; 15; 45; 75 MG/KG BW) FOR 105 WK (STUDY DURATION: 106 WK)",inactive; negative
same,carcinogen call,"Species: RAT, Strain/Sex: F344/MALE, Route: ORAL, Dose: 0, 500, 1250, 2500 PPM IN DRINKING WATER (APPROXIMATELY 0; 15; 30; 60 MG/KG BW) FOR 104 WK (STUDY DURATION: 105 WK), Dose: 0, 500, 1250, 2500 PPM IN DRINKING WATER (APPROXIMATELY 0; 15; 30; 60 MG/KG BW) FOR 104 WK (STUDY DURATION: 105 WK)",inactive; negative
same,carcinogen call,"Species: RAT, Strain/Sex: WISTAR/MALE, Route: INHALATION, Dose: 0, 10 MG/M3 OF RESPIRABLE DUST 7 HR/D 5 D/WK FOR 224 DAYS DURING A PERIOD OF 12 MO (STUDY DURATION: 29 MO), Tumor Site: Type of Lesion: LUNG: ADENOMA OR CARCINOMA",active; positive
same,carcinogen call,"Species: RAT, Strain/Sex: WISTAR/MALE, Route: INTRAPERITONEAL, Dose: 0, 25 MG OF DUST SUSPENDED IN 2 ML PHOSPHATE BUFFERED SALINE (STUDY DURATION: >418 D), Tumor Site: Type of Lesion: LUNG: MESOTHELIOMA",active; positive
COc1ccc2c3c(cccc13)OC([N+](=O)[O-])=C2,carcinogen call,"Species: RAT, Strain/Sex: WISTAR/MALE, Route: SUBCUTANEOUS, Dose: 0, 0.5 MG IN DMSO 1/WK FOR DURATION OF STUDY (TOTAL DOSE: 0; 10.23 MG) (STUDY DURATION: 156 D), Dose: 0, 0.5 MG IN DMSO 1/WK FOR DURATION OF STUDY (TOTAL DOSE: 0; 10.23 MG) (STUDY DURATION: 156 D), Tumor Site: Type of Lesion: INJECTION SITE: FIBROSARCOMA",active; positive
CCn1nc(C)c2c1C(c1ccccc1)=NCC(=O)N2,carcinogen call,"Species: MOUSE, Strain/Sex: CD-1/FEMALE, Route: ORAL, Dose: 0, 15, 150, MG/KG IN DIET FOR 78 WK (STUDY DURATION: 78 WK), Dose: 0, 15, 150, MG/KG IN DIET FOR 78 WK (STUDY DURATION: 78 WK)",inactive; negative
same,carcinogen call,"Species: MOUSE, Strain/Sex: CD-1/MALE, Route: ORAL, Dose: 0, 15, 150, MG/KG IN DIET FOR 78 WK (STUDY DURATION: 78 WK), Dose: 0, 15, 150, MG/KG IN DIET FOR 78 WK (STUDY DURATION: 78 WK), Tumor Site: Type of Lesion: LIVER: ADENOMA",active; positive
same,carcinogen call,"Species: RAT, Strain/Sex: CD/FEMALE, Route: ORAL, Dose: 0, 15, 150 MG/KG IN DIET FOR 104 WK (STUDY DURATION: 104 WK), Dose: 0, 15, 150 MG/KG IN DIET FOR 104 WK (STUDY DURATION: 104 WK)",inactive; negative
same,carcinogen call,"Species: RAT, Strain/Sex: CD/MALE, Route: ORAL, Dose: 0, 15, 150 MG/KG IN DIET FOR 104 WK (STUDY DURATION: 104 WK), Dose: 0, 15, 150 MG/KG IN DIET FOR 104 WK (STUDY DURATION: 104 WK)",inactive; negative
O=P(=O)O,carcinogen call,"Species: RAT, Strain/Sex: F344/FEMALE, Route: INHALATION, Dose: 0, 1, 5, 25 MG/M3 6 HR/D 5 D/WK FOR 24 MO (STUDY DURATION: 24 MO), Dose: 0, 1, 5, 25 MG/M3 6 HR/D 5 D/WK FOR 24 MO (STUDY DURATION: 24 MO)",inactive; negative
same,carcinogen call,"Species: RAT, Strain/Sex: F344/MALE, Route: INHALATION, Dose: 0, 1, 5, 25 MG/M3 6 HR/D 5 D/WK FOR 24 MO (STUDY DURATION: 24 MO), Dose: 0, 1, 5, 25 MG/M3 6 HR/D 5 D/WK FOR 24 MO (STUDY DURATION: 24 MO)",inactive; negative
COc1ccc(C(=O)Nc2c(Cl)cncc2Cl)cc1OC1CCCC1,carcinogen call,"Species: RAT, Strain/Sex: SPRAGUE-DAWLEY/FEMALE, Route: INHALATION, Dose: 0, 0.125, 0.5, 1.0 MG/KG BW/D 1 HR/D IN A DRY-POWDER FORMULATION WITH LACTOSE VEHICLE USING A NOSE-ONLY AEROSOL EXPOSURE, Dose: 0, 0.125, 0.5, 1.0 MG/KG BW/D 1 HR/D IN A DRY-POWDER FORMULATION WITH LACTOSE VEHICLE USING A NOSE-ONLY AEROSOL EXPOSURE, Tumor Site: Type of Lesion: NASAL OLFACTORY REGION: TUMORS",active; positive
same,carcinogen call,"Species: RAT, Strain/Sex: SPRAGUE-DAWLEY/MALE, Route: INHALATION, Dose: 0, 0.125, 0.5, 1.0 MG/KG BW/D 1 HR/D IN A DRY-POWDER FORMULATION WITH LACTOSE VEHICLE USING A NOSE-ONLY AEROSOL EXPOSURE, Dose: 0, 0.125, 0.5, 1.0 MG/KG BW/D 1 HR/D IN A DRY-POWDER FORMULATION WITH LACTOSE VEHICLE USING A NOSE-ONLY AEROSOL EXPOSURE, Tumor Site: Type of Lesion: NASAL OLFACTORY REGION: TUMORS",active; positive
COc1cc2c(c3oc4cccc(O)c4c(=O)c13)[C@@H]1C=CO[C@@H]1O2,carcinogen call,"Species: MOUSE, Route: ORAL, Tumor Site: Type of Lesion: LUNG",active; positive
same,carcinogen call,"Species: MOUSE, Strain/Sex: DBF1/FEMALE, Route: ORAL, Dose: 0, 30, 120 PPM IN DIET FOR 55 OR 51 WK, STUDY DURATION: 73 WK, Dose: 0, 30, 120 PPM IN DIET FOR 55 OR 51 WK, STUDY DURATION: 73 WK, Tumor Site: Type of Lesion: LIVER: HEMANGIOENDOTHELIOMA, ANGIOSARCOMA, LUNG: ADENOMA, INTEGUMENTARY SYSTEM (SUBCUTANEOUS TISSUE): ANGIOSARCOMA, Tumor Site: Type of Lesion: LIVER: HEMANGIOENDOTHELIOMA, ANGIOSARCOMA, LUNG: ADENOMA, INTEGUMENTARY SYSTEM (SUBCUTANEOUS TISSUE): ANGIOSARCOMA",active; positive
same,carcinogen call,"Species: RAT, Route: DERMAL, Tumor Site: Type of Lesion: INTEGUMENTARY SYSTEM (SKIN)",active; positive
same,carcinogen call,"Species: RAT, Route: ORAL, Tumor Site: Type of Lesion: LIVER",active; positive
same,carcinogen call,"Species: RAT, Route: SUBCUTANEOUS, Tumor Site: Type of Lesion: INJECTION SITE",active; positive
